Experimental data published in US8563714B2, “Bridged spiro [2.4] heptane derivatives as ALX receptor and/or FPRL2 agonists” (Actelion Pharmaceuticals Ltd., priority 2009, dated 2013).
pEC50: −log10 of the molar value.

What was measured:
human ALX receptor = molecular target: T1, human ALX receptor (Homo sapiens, UniProt P25090); assay: Intracellular calcium measurements (FLIPR), agonistic activity in HEK293-hALXR-Gα16 cells; type: cell-based; details: Fluo-4 calcium FLIPR, normalized to WKYMVm 10 nM
T1 construct: expressed in transfected cells; host or cells: HEK293 (HEK293-hALXR-Gα16)
T1 sequence (P25090 1-351): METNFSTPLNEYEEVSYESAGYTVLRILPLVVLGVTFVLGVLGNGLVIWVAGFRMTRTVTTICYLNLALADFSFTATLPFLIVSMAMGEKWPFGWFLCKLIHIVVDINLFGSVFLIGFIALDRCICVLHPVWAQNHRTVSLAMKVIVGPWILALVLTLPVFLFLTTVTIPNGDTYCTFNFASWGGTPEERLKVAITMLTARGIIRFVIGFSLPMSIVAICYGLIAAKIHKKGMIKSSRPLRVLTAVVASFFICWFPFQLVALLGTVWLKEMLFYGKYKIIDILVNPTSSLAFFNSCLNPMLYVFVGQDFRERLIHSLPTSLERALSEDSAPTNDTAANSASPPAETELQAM
In short: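 Agonist-induced calcium flux was recorded by FLIPR (488/540 nm) in HEK293-hALXR-Gα16 cells pre-loaded with Fluo-4 AM (1 μM, 60 min, 37°C). Peak signal above baseline, after subtracting buffer addition, was expressed relative to WKYMVm at 10 nM final.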

human FPRL2 = molecular target: T2, human FPRL2 (Homo sapiens, UniProt P25089); assay: Intracellular calcium measurements (FLIPR), agonistic activity in HEK293-hFPRL2-Gα16 cells; type: cell-based; details: Fluo-4 calcium FLIPR, normalized to GLY14-Humanin 100 nM
T2 construct: expressed in transfected cells; host or cells: HEK293 (HEK293-hFPRL2-Gα16)
T2 sequence (P25089 1-353): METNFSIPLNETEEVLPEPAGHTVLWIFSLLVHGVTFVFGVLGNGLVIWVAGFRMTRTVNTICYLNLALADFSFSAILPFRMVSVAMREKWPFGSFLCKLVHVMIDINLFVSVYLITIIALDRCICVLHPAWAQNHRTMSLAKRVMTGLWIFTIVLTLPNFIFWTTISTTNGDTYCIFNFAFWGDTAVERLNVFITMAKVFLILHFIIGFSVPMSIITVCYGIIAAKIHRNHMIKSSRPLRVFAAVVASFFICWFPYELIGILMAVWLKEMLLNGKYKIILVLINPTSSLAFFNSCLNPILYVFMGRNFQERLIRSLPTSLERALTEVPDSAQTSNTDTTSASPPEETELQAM
In short: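 Peak values after baseline subtraction are expressed relative to 100 nM Gly14-Humanin; compounds diluted in assay buffer from 10 mM DMSO stocks.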

Structure (SMILES)	pEC50 (human ALX receptor)	pEC50 (human FPRL2)
CC(=O)c1ccc(NC(=O)[C@H]2[C@H](C(=O)NCCCCN3CCCC3)[C@H]3C=C[C@@H]2C32CC2)cc1 (racemic) [Example 192, (5R*)—N^5-(4-Acetyl-phenyl)-(6R*)—N^6-(4-pyrrolidin-1-yl-butyl)-(4S*,7R*)-[4,7-ethenylene-spiro[2.4]heptane]-5,6-dicarboxamide]	7.64	6.86
NCc1ccc(CNC(=O)[C@H]2[C@H](C(=O)Nc3ncc(Br)s3)[C@@H]3C=C[C@H]2C32CC2)cc1 (racemic) [Example 303, (5R*)—N^5-(5-Bromo-thiazol-2-yl)-(6R*)—N^6-(4-(aminomethyl)phenyl-methyl)-(4S*,7R*)-[4,7-ethenylene-spiro[2.4]heptane]-5,6-dicarboxamide]	7.35	5.87
NCCCCNC(=O)[C@H]1[C@H](C(=O)Nc2ncc(Br)s2)[C@@H]2CC[C@H]1C21CC1 [Example 335, (5R)—N^5-(5-Bromo-thiazol-2-yl)-(6R)—N^6-(4-amino-butyl)-(4S,7R)-[4,7-ethylene-spiro[2.4]heptane]-5,6-dicarboxamide]	9.30	5.89
O=C(NCCOCCO)[C@H]1[C@H](C(=O)Nc2ncc(Br)s2)[C@@H]2CC[C@H]1C21CC1 [Example 407, (5R)—N^5-(5-Bromothiazol-2-yl)-(6R)—N^6-(2-(2-hydroxyethoxy)ethyl)-(4S,7R)-[4,7-ethylene-spiro[2.4]heptane]-5,6-dicarboxamide]	7.96	5.03
Cc1cc(C(=O)N(C)C[C@H]2[C@H](C(=O)Nc3ccc(Br)cc3)[C@@H]3C=C[C@H]2C32CC2)nn1C (racemic) [Example 183, (5R*)—N^5-(4-Bromo-phenyl)-(6R*)-6-{[N-(1,5-dimethyl-1H-pyrazole-3-carbonyl)-N-methyl-amino]-methyl}-(4S*,7R*)-[4,7-ethenylene-spiro[2.4]heptane]-5-carboxamide]	6.52	5.05
O=C(Nc1ccc(Br)cc1)C1C(C(=O)NC2CCCNC2)C2C=CC1C21CC1 (mixture of isomers) [Example 26, (5R*)—N^5-(4-Bromophenyl)-(6R*)—N^6-(piperidin-3-yl)-(4S*,7R*)-[4,7-ethenylene-spiro[2.4]heptane]-5,6-dicarboxamide]	8.38	6.13

Other lines, results leading:

pEC50 (human ALX receptor)	pEC50 (human FPRL2)	Structure (SMILES)
5.16	6.59	O=C(NCCCCN1CCCC1)[C@H]1[C@H](C(=O)NCc2ccc(F)cc2Br)[C@@H]2C=C[C@H]1C21CC1 (racemic) [Example 353, (5R*)—N^5-(2-Bromo-4-fluorophenyl-methyl)-(6R*)—N^6-(4-pyrrolidino-butyl)-(4S*,7R*)-[4,7-ethenylene-spiro[2.4]heptane]-5,6-dicarboxamide]
5.69	7.03	O=C(NCCCCN1CCCC1)[C@H]1[C@H](C(=O)NCc2cccc(Br)c2)[C@@H]2C=C[C@H]1C21CC1 (racemic) [Example 143, (5R*)—N^5-(3-Bromophenyl-methyl)-(6R*)—N^6-(4-pyrrolidin-1-yl-butyl)-(4S*,7R*)-[4,7-ethenylene-spiro[2.4]heptane]-5,6-dicarboxamide]
6.56	6.71	Cc1cc(Br)ccc1NC(=O)[C@H]1[C@H](C(=O)NCCCCN2CCCC2)[C@H]2C=C[C@@H]1C21CC1 [Example 296, (5R)—N^5-(4-Bromo-2-methylphenyl)-(6R)—N^6-(4-pyrrolidino-butyl)-(4S,7R)-[4,7-ethenylene-spiro[2.4]heptane]-5,6-dicarboxamide]
8.00	6.44	O=C(NCCCCN1CCCC1)[C@H]1[C@H](C(=O)Nc2ccc3scnc3c2)[C@@H]2C=C[C@H]1C21CC1 (racemic) [Example 117, (5R*)—N^5-(Benzothiazol-5-yl)-(6R*)—N^6-(4-pyrrolidin-1-yl-butyl)-(4S*,7R*)-[4,7-ethenylene-spiro[2.4]heptane]-5,6-dicarboxamide]
